In US20260373283A1, “LIPID NANOPARTICLES AND METHODS OF USING THE SAME FOR TREATING CELL PROLIFERATIVE DISEASES AND DISORDERS” (Northwestern University, priority 2022, published 2026):

How the values were obtained:
CT-2A glioma [1] = assay: survival with Stupp treatment (RT plus TMZ); format: in vivo, mouse; settings: RT+TMZ (3 Gy×3; TMZ 50 mg/kg×3 i.p.); control 27.5 days
Method: FIG. 15. B-LNP treatment improves antitumor effects of RT plus concomitant adjuvant TMZ in GBM-bearing mice. Survival curves of C57 mice received intracranial implantation of 5×10^4 CT-2A cells and two administrations of saline, B-LNP/diABZI (0.25 mg/kg diABZI), or a combination of free diABZI and therapeutic antibodies (αPD-L1+αCD47) (referred to as cocktails) through implanted cannula. Selected groups of mice also received RT (3 Gy×3) plus TMZ through intraperitoneal injection (50 mg/kg×3). n=7-10 mice per group. **, p<0.01; determined by Log-rank test for groups with proportional hazards and Renyi statistics for groups with crossing hazards. p values were adjusted by Bonferroni correction.
In vivo B-LNP/diABZI combined with Stupp treatment. C57BL/6 mice with intracranially implanted CT-2A (5×10^4 cells per mouse) were randomly grouped and received a daily dose of brain-focused irradiation at 3 Gy and TMZ at 50 mg per kg intraperitoneally for three consecutive days starting on the seventh day after tumor cell implantation. Certain groups of mice also received B-LNP/diABZI (0.25 mg diABZI per kg) or a combination of free diABZI and therapeutic antibodies (αPD-L1+αCD47) on the ninth and thirteenth day after tumor implantation through intracranially implanted cannula. All mice were followed for their survival following outlined endpoint protocols.

[2] = tested on: CD8+ T cells in CT-2A tumors; assay: T cell infiltration to brain tumors after systemic delivery; format: in vivo, mouse; settings: i.v. 2.5 mg/kg diABZI with fractionated RT
Method: FIG. 16. Systemic nanoparticle delivery of diABZI enhances T cell infiltration to brain tumors. C57 mice received intracranial implantation of 7.5×10^4 CT-2A cells, RT (3 Gy×3), and two administrations of saline, free diABZI, or P-LNP/diABZI (2.5 mg/kg diABZI) through intravenous injections. Freshly dissected brains were analyzed by flow cytometry for T cell infiltration. Data are represented as mean±SEM; n=5. *, p<0.05; **, p<0.01; determined by determined by one-way ANOVA with Tukey's multiple comparisons test.
In vivo nanoparticle treatment through systemic delivery. C57BL/6 mice with intracranially implanted CT-2A (7.5×10^4 cells per mouse) were randomly grouped and treated with saline or P-LNP/diABZI (2.5 mg diABZI per kg) through intravenous administration on the ninth, fourteenth, and nineteenth day after tumor implantation. Selected groups of mice also received brain-focused radiotherapy for three consecutive days starting on the sixth day post-tumor implantation. […] Tumor burden was analyzed by hematoxylin and eosin (H&E) staining. Therapeutic effects of P-LNP/diABZI was similarly evaluated in mice implanted with PF8 cells (7.5×10^4 cells per mouse) and received RT and intravenous administrations of saline or P-LNP/diABZI (2.5 mg diABZI per kg) on the eighth and thirteenth day after tumor implantation.

TAMCs [3] = assay: pro-inflammatory gene expression in TAMCs by qPCR; format: cell-based, mouse; settings: diABZI 200 nM, 6 h
Method: (§1) In vitro analysis of diABZI effects on TAMC and T cell. In vitro generated TAMCs (1×10^6 cells/well) in 6-well plate were treated with diABZI at 200 nM. After 6 h of treatment, cells were washed and collected for RNA isolation using the RNEasy Plus Mini Kit (Qiagen). Total RNA was quantified by Nanodrop (Thermo Scientific), and cDNA was synthesized using the iScript cDNA synthesis kit (Bio-Rad). Gene expression was analyzed by quantitative PCR analysis (Bio-Rad). Alternatively, flow cytometric analysis was performed 24 h after treatment. To determine the cytotoxicity of diABZI to T cells, T cells were isolated using mouse T cell isolation kit (STEMCELL Technologies) and seeded at 2×10^5 cells/well in 96-well U bottom plates with the addition of Dynabeads mouse T cell activator CD3/CD28 (Fisher) and IL-2 (PeproTech) at 50 U/ml. Cells were treated with diABZI at 200 nM for 48 h and collected for annexin V assay (BioLegend) using flow cytometry.

TAMCs [4] = assay: ARG1, CD206, CD86 expression in TAMCs by flow cytometry; format: cell-based, mouse; settings: 24 h post-treatment
Method: (§2) BMDM, bone marrow-derived macrophage. […] FIG. 10E, Cytotoxicity of diABZI to T cells was tested by Annexin V staining using flow cytometry 48 h after treatment with diABZI at 200 nM.
as §1

T cells = assay: cytotoxicity to T cells by Annexin V staining; format: cell-based, mouse; settings: 200 nM, 48 h
Method: as §2, §1

CT-2A glioma [5] = assay: survival, CT-2A-bearing mice, systemic delivery with RT; format: in vivo, mouse; settings: i.v. 2.5 mg/kg diABZI with fractionated RT
Method: FIGS. 6A-6F. Systemic nanoparticle delivery of diABZI potentiates anti-glioma effects of RT. FIGS. 6A-6E, C57 mice received intracranial implantation of 7.5×10^4 CT-2A cells and three administrations of saline, free diABZI, or P-LNP/diABZI (2.5 mg/kg diABZI) through intravenous injections. Selected groups of mice received RT (3 Gy×3) as monotherapy or combination therapy. FIG. 6A, Survival curves of CT-2A-bearing C57 mice received different treatments. n=6-7 mice per group. Survival curves were compared using Log-rank test for those with proportional hazards and Renyi statistics for those with crossing hazards with p values adjusted by Bonferroni correction. […] Tumor burden in control and LTS mice were evaluated through H&E staining. FIG. 6C, 100 d post-rechallenge, freshly dissected brains from LTS, age-matched tumor-bearing mice, and age-matched non-tumor control mice were analyzed by flow cytometry for immune composition and CD8^+ T cell phenotypes. Data are represented as mean±SEM; n=5. *, p<0.05; **, p<0.01; determined by Student's t-test. […] FIG. 6D, Histology of the brains was evaluated by H. E. staining. […] FIG. 6E, Freshly dissected brains were analyzed by flow cytometry for immune composition, TAMC, and CD8^+ T cell phenotypes. Data are represented as mean±SEM; n=5. **, p<0.01; ***, p<0.001; ****, p<0.0001; determined by Student's t-test. […]

Compound: Cn1nnc2c(C(N)=O)ncn2c1=O [TMZ, temozolomide]
- median survival (CT-2A glioma [1]): 36 days

Compound: CCn1nc(C)cc1C(=O)Nc1nc2cc(C(N)=O)cc(OC)c2n1C/C=C/Cn1c(NC(=O)c2cc(C)nn2CC)nc2cc(C(N)=O)cc(OCCCN3CCOCC3)c21 [diABZI]
- CD8+ T cell tumor infiltration [2]: not free drugs, led to a dramatically enhanced CD8^+ T cell tumor infiltration
- expression of pro-inflammatory genes in TAMCs (type I IFNs, CCL5, CXCL10) (TAMCs [3]): dramatically increased expression of pro-inflammatory genes in TAMCs
- ARG1 and CD206 in TAMCs (TAMCs [4]): reduced levels of immunosuppressive factors ARG1 and CD206
- CD86 in TAMCs (TAMCs [4]): higher levels of activation factor CD86
- cytotoxicity to T cells (T cells): causes cytotoxicity to T cells
- animal survival in CT-2A glioma model (CT-2A glioma [5]): not free drugs, led to a dramatically enhanced CD8^+ T cell tumor infiltration (FIG. 16) and animal survival
